≈ marks a conversion by molar mass, not a printed value.
Assays:
[1] = system: rifampin-resistant Staphylococcus aureus (RRSA) strain ATCC 12600-Rif (H526N); assay: MIC, spiral gradient endpoint assay, RRSA 12600-Rif; type: cell-based
[2] = system: methicillin-resistant Staphylococcus aureus (MRSA) strain BAA-1707 (USA-400; MW2); assay: MIC, spiral gradient endpoint assay, MRSA BAA-1707; type: cell-based
[3] = system: Acinetobacter baumannii ATCC 19606; assay: MIC, spiral gradient endpoint assay, A. baumannii; type: cell-based
[4] = system: Bacillus anthracis Vollum 1b; assay: microbe, parasite or virus in culture; type: cell-based
[5] = system: Brucella melitensis 16M; assay: microbe, parasite or virus in culture; type: cell-based
[6] = system: linezolid-resistant Staphylococcus aureus (LRSA) strain NRS 120; assay: MIC, spiral gradient endpoint assay, LRSA NRS 120; type: cell-based
[7] = system: vancomycin-intermediate Staphylococcus aureus (VISA) strain NRS 1; assay: MIC, spiral gradient endpoint assay, VISA NRS 1; type: cell-based
[8] = system: Staphylococcus aureus ATCC 12600; assay: MIC, spiral gradient endpoint assay, S. aureus ATCC 12600; type: cell-based; conditions: ATCC12600
[9] = system: methicillin-resistant Staphylococcus aureus (MRSA) strain BAA-1717 (USA-300); assay: MIC, spiral gradient endpoint assay, MRSA BAA-1717; type: cell-based
[10] = system: Burkholderia mallei CHN7; assay: microbe, parasite or virus in culture; type: cell-based
[11] = target: E. coli RNA polymerase σ^70 holoenzyme (Escherichia coli, UniProt P0A8T7+P0A8V2); assay: Fluorescence-detected RNA polymerase assay, E. coli RNA polymerase; type: biochemical; conditions: read-out: IC50 E. coli RNAP
[12] = system: Escherichia coli D21f2tolC; assay: MIC, spiral gradient endpoint assay, E. coli D21f2tolC; type: cell-based
[13] = system: methicillin-resistant Staphylococcus aureus (MRSA) strain BAA-1707 (USA-400, MW2); assay: Antibacterial efficacy in mouse model of Staphylococcus aureus systemic infection (peritonitis model); type: in vivo, Swiss Webster mice; conditions: mice
[14] = system: Burkholderia pseudomallei Human/Blood/OH/US/1994; assay: microbe, parasite or virus in culture; type: cell-based
[15] = system: Mycobacterium tuberculosis H37Rv; assay: MIC, microplate Alamar Blue assay, M. tuberculosis; type: cell-based
[16] = system: Francisella tularensis SCHU4; assay: microbe, parasite or virus in culture; type: cell-based
[17] = target: M. tuberculosis RNA polymerase core enzyme, M. tuberculosis σ^A (Mycobacterium tuberculosis, UniProt P9WGY7+P9WGY9); assay: Fluorescence-detected RNA polymerase assay, M. tuberculosis RNA polymerase; type: biochemical; conditions: read-out: IC50 M. tuberculosis RNAP
[18] = target: S. aureus RNA polymerase core enzyme, S. aureus σ^A (Staphylococcus aureus, UniProt P47768+Q2G0N5); assay: Fluorescence-detected RNA polymerase assay, S. aureus RNA polymerase; type: biochemical; conditions: read-out: IC50 S. aureus RNAP
[19] = system: Yersinia pestis C092; assay: microbe, parasite or virus in culture; type: cell-based
[20] = intravenous administration 0 h post-infection

Chain of E. coli RNA polymerase σ^70 holoenzyme (P0A8T7 whole entry): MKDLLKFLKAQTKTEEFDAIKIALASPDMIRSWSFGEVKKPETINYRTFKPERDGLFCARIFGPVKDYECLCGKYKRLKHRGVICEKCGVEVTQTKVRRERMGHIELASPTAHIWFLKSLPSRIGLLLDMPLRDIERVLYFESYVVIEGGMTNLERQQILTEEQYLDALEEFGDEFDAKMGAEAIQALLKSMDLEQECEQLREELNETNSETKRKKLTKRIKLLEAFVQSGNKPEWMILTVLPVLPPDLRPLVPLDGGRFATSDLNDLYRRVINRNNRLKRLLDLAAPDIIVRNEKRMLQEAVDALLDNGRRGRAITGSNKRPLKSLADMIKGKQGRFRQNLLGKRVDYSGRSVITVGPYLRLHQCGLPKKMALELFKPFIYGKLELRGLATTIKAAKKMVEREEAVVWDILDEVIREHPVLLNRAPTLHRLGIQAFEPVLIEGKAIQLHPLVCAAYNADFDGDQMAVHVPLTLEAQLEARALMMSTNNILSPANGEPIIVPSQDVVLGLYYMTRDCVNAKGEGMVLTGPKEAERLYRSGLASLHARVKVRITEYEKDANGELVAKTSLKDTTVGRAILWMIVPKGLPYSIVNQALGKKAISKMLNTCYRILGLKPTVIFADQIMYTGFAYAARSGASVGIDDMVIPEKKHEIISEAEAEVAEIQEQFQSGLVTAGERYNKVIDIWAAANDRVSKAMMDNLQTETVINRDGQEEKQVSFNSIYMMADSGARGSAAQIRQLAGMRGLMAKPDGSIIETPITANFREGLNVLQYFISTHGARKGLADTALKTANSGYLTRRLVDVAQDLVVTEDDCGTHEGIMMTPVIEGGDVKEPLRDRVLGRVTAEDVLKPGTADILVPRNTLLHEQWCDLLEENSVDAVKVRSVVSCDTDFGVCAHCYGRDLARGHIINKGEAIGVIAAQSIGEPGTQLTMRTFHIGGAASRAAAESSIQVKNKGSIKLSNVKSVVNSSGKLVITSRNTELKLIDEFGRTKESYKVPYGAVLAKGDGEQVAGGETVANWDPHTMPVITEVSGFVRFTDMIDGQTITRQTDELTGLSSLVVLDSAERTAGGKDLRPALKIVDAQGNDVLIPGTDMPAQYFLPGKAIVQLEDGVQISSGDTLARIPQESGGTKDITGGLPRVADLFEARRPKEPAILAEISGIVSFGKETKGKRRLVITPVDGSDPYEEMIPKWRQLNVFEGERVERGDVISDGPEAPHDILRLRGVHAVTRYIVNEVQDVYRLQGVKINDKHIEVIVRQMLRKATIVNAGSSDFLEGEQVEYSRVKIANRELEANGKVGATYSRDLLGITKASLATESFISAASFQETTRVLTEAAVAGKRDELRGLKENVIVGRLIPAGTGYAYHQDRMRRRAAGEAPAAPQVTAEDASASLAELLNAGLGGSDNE
Chain of E. coli RNA polymerase σ^70 holoenzyme (P0A800 whole entry, further chain): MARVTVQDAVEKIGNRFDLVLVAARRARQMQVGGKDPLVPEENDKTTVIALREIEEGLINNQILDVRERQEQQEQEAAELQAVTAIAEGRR
Chain of E. coli RNA polymerase σ^70 holoenzyme (P0A8V2 whole entry): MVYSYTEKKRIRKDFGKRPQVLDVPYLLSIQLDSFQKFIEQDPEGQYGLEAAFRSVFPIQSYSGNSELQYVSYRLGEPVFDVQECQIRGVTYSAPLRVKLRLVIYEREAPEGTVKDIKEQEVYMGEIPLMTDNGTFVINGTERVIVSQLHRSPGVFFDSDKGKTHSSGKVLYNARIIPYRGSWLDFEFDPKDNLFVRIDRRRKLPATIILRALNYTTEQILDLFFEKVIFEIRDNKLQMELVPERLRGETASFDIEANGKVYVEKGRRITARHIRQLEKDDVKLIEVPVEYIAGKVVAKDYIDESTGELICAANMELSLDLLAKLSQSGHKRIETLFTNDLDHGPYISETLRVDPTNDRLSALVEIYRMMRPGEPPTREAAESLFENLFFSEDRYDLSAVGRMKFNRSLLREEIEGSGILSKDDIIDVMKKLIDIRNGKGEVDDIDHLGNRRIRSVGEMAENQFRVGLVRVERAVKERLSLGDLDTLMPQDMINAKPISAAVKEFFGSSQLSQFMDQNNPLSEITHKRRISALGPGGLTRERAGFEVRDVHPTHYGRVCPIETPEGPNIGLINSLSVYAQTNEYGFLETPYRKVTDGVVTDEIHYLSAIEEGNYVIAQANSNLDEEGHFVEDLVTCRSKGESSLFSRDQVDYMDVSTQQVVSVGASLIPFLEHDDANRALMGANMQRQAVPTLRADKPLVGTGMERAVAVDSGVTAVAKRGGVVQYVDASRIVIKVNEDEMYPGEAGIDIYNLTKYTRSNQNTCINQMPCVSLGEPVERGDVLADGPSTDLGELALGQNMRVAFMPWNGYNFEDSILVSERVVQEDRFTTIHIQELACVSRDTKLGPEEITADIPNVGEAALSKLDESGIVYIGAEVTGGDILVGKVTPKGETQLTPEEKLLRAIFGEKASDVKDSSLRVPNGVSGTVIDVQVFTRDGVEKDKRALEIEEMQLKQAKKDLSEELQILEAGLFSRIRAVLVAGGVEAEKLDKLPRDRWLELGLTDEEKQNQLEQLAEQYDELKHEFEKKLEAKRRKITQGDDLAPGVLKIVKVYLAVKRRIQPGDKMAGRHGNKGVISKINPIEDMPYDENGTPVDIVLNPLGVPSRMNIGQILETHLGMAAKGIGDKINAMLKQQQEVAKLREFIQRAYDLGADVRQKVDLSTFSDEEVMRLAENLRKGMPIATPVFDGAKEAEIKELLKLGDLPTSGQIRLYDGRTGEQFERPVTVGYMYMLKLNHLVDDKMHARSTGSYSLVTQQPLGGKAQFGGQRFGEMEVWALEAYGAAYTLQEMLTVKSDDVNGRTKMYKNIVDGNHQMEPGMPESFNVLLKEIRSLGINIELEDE
Chain of E. coli RNA polymerase σ^70 holoenzyme (P00579 whole entry, further chain): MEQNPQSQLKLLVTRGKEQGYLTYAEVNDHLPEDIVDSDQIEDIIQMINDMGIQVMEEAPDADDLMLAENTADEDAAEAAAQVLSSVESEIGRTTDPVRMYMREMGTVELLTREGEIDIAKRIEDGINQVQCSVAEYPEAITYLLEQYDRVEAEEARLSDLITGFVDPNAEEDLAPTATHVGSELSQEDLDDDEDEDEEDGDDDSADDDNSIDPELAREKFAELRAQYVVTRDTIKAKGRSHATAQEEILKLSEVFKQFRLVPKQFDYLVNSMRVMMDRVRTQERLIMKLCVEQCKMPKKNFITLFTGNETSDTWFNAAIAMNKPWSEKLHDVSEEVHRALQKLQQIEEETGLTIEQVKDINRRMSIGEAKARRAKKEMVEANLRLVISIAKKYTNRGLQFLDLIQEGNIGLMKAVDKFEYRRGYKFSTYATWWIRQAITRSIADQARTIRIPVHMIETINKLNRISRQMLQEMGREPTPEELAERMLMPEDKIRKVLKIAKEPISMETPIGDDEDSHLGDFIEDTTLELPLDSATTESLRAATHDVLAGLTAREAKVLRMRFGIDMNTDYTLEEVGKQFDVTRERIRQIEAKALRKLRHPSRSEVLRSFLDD
Chain of E. coli RNA polymerase σ^70 holoenzyme (P0A7Z4 whole entry, further chain): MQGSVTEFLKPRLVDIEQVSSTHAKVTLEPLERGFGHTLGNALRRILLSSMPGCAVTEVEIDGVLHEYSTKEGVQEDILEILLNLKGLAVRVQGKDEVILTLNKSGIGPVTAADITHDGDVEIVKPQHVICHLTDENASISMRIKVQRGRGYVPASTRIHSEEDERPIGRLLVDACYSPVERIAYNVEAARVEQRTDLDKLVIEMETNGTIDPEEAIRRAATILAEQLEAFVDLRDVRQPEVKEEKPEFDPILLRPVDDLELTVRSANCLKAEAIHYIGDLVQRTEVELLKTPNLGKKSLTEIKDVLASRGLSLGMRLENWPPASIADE

Compound COC(=O)N/C=C/CCC(C)c1cc(O)c(C(=O)C(C)=Cc2ccc(CCC(F)(F)F)s2)c(=O)o1 (mixture of isomers) [APY61, methyl (E)-5-(5-((E/Z)-3-(5-(3,3,3-trifluoropropyl)thiophen-2-yl)-2-methylacryloyl)-4-hydroxy-6-oxo-6H-pyran-2-yl)hex-1-enylcarbamate] has an MIC ([1]; Staphylococcus aureus, ATCC12600, read-out: MIC S. aureus RRSA 12600-Rif) of 1 mg/L, an MIC ([2]; Staphylococcus aureus, read-out: MIC S. aureus MRSA BAA-1707) of 0.9 mg/L and an MIC ([3]; ATCC19606, Acinetobacter baumannii ATCC 19606) of 10 mg/L. The MIC ([4]; Bacillus anthracis, VOLLUM1B, read-out: MIC B. anthracis Vollum-1b) was 6 mg/L, the MIC ([5]; Brucella melitensis, 16M, read-out: MIC B. melitensis 16M) was > 50 mg/L and the MIC ([6]; Staphylococcus aureus, NRS120, read-out: MIC S. aureus LRSA NRS120) was 0.4 mg/L. It also gave an MIC ([7]; Staphylococcus aureus, read-out: MIC S. aureus VISA NRS1) of 0.4 mg/L, an MIC ([8]; Staphylococcus aureus ATCC 12600) of 0.7 mg/L and an MIC ([9]; Staphylococcus aureus, read-out: MIC S. aureus MRSA BAA-1717) of 0.9 mg/L. For the same compound, the MIC ([10]; Burkholderia mallei, CHN7, read-out: MIC B. mallei CHN7) was 30 mg/L, the IC50 [11] was 0.02 µM and the MIC ([12]; Escherichia coli, D21F2TOLC, read-out: MIC E. coli D21f2toIC) was 0.2 mg/L. It also gave a PD50 [13, 20] of 20 mg/kg, an MIC ([14]; Burkholderia pseudomallei, read-out: MIC B. pseudomallei Human/Blood/OH) of 30 mg/L and an MIC [15] of 10 mg/L. The MIC ([16]; Francisella tularensis, SCHU4, read-out: MIC F. tularensis SCHU4) was 30 mg/L.
CCCC/C(C)=C/C=C(\C)C(=O)c1c(O)cc([C@H](C)CC/C=C/NC(=O)OC)oc1=O [Myx B, myxopyronin B, reference compound] was tested, and the “MIC S. aureus RRSA 12600-Rif” value [1] was 1 mg/L (≈ 2.32 µM), the IC50 [17] was 0.1 µM and the “MIC S. aureus MRSA BAA-1707” value [2] was 0.9 mg/L (≈ 2.09 µM). The “inhibition of Acinetobacter baumannii (in words)” value [3] was “does not inhibit”, the “MIC A. baumannii 19606” value ([3]; Acinetobacter baumannii ATCC 19606) was >40 mg/L and the “MIC B. anthracis Vollum-1b” value [4] was 6 mg/L (≈ 13.9 µM). For the same compound, the IC50 [18] was 0.07 µM, the “MIC B. melitensis 16M” value [5] was 2 mg/L (≈ 4.63 µM) and the “MIC S. aureus LRSA NRS120” value [6] was 0.5 mg/L (≈ 1.16 µM). The “MIC S. aureus VISA NRS1” value [7] was 0.5 mg/L (≈ 1.16 µM), the “MIC S. aureus 12600” value ([8]; Staphylococcus aureus) was 0.8 mg/L (≈ 1.85 µM) and the “MIC S. aureus MRSA BAA-1717” value [9] was 0.8 mg/L (≈ 1.85 µM). The “MIC B. mallei CHN7” value [10] was 6 mg/L (≈ 13.9 µM), the “MIC Y. pestis C092” value [19] was 50 mg/L (≈ 116 µM) and the IC50 [11] was 0.01 µM. For the same compound, the “MIC E. coli D21f2toIC” value ([12]; Escherichia coli D21f2tolC) was 0.1 mg/L (≈ 0.232 µM), the PD50 [13, 20] was 20 mg/kg and the PD50 ([13]; oral administration 1 h pre-infection) was 50 mg/kg. The “MIC B. pseudomallei Human/Blood/OH” value [14] was 30 mg/L (≈ 69.5 µM), the “MIC M. tuberculosis H37Rv” value [15] was 2 mg/L (≈ 4.63 µM) and the “MIC F. tularensis SCHU4” value [16] was 2 mg/L (≈ 4.63 µM).

From patent US9592221B2, “Antibacterial agents: aryl myxopyronin derivatives” (priority 2012, dated 2017)
